Measured values taken from US8697661B2, “Use of spinosyns and spinosyn compositions against herpesviridae viral infections” (priority 2009, dated 2014).

Experiments:
[1] = tested on: Herpes Simplex Virus type 1, McIntyre (HSV1); experiment: Viral Plaque Reduction Assay / inhibition of infection assay, HSV1 in Vero cells; type: cell-based; details: 10 μg/ml spinosad
H460 cells = experiment: Cytotoxicity on H460 cells, ApoTox-Glo Triplex assay; type: cell-based
[2] = tested on: Plasmodium falciparum, strain 3D7; details: 2% spinosad dispersion in DMSO
[3] = tested on: Leishmania donovati MON-2 promastigotes; experiment: In vitro test against Leishmania promastigotes; details: read-out: Promastigotes IC50; stationary-phase promastigotes, 26° C.
[4] = tested on: Plasmodium falciparum 3D7 rings and trophozoites; experiment: Susceptibility of different stages of P. falciparum; details: 3D7 parasites, 48 h, 1% initial parasitemia
[5] = tested on: Leishmania donovati MON-2 amastigotes; experiment: In vitro test against Leishmania amastigotes in J774 macrophages; details: read-out: Amastigotes IC50; infected J774 macrophages

Spinosad
inhibition of approximately 20 infectious units of the HSV1 virus [1]: 100% | inhibition of higher virus loads ([1]; more than approximately 20 infectious units): not inhibited | cytotoxicity (H460 cells; 20 μg/mL spinosad, 3 hours of treatment): no cytotoxicity | concentration above which cell viability decreases (H460 cells; three hours of treatment): higher than 20 μg/mL | IC50 [2]: about 0.625 μg/ml | IC50 [3]: 9.5 ± 3.8 µM | activity against rings versus trophozoites [4]: same activity against both rings and trophozoites | IC50 [5]: 9 ± 3 µM
